Experimental data as given in patent US20090155209A1, “NOVEL MACROCYCLIC INHIBITORS OF HEPATITIS C VIRUS REPLICATION” (priority 2007, published 2009).

Columns and labels:
NS3-NS4 [1] = molecular target: T1, NS3-NS4 (Hepatitis C virus genotype 1a, UniProt P27958); assay: NS3-NS4 activity, IC50 (Example 37, Table 8); format: biochemical
NS3-NS4 [2] = molecular target: T1, NS3-NS4; assay: cell-based; details: EC50, NS3-NS4 activity

T1 sequence (P27958 1027-1657): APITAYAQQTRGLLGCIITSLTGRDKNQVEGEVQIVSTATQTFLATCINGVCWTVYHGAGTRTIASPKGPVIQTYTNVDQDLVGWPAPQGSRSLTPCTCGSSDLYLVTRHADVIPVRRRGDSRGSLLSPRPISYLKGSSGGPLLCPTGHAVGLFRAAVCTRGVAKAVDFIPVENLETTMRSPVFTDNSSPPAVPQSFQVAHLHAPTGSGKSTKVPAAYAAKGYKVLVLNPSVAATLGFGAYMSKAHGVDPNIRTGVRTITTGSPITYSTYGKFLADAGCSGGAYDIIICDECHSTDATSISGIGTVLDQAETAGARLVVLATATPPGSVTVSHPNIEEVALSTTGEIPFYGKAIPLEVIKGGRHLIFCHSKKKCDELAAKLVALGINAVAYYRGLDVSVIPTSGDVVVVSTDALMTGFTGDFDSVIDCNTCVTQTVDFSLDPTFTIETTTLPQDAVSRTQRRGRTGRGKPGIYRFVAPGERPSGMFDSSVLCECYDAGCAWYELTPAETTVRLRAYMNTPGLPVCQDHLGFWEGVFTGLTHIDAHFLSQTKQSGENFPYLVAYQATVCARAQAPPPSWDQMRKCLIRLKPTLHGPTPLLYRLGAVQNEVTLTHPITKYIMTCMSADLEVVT
T1 sequence (P27958 1658-1711): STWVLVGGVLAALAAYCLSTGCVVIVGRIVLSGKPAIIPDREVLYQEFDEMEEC

Row | SMILES | IC50 (NS3-NS4 [1]) | EC50 (NS3-NS4 [2])
1 | CC(C)(C)OC(=O)N[C@H]1CCCCC/C=C\[C@@H]2C[C@@]2(C(=O)NS(=O)(=O)c2ccc(F)cc2)NC(=O)[C@@H]2C[C@@H](OC(=O)N3Cc4cccc(F)c4C3)CN2C1=O [Compound 351] | < 100 nM | < 100 nM
2 | CN(C(=O)N[C@H]1CCCCC/C=C\[C@@H]2C[C@@]2(C(=O)NS(=O)(=O)c2c(Cl)cccc2Cl)NC(=O)[C@@H]2C[C@@H](OC(=O)N3Cc4cccc(F)c4C3)CN2C1=O)C(C)(C)C [Compound 360] | < 100 nM | 100 to 1000 nM
3 | COc1cc(CS(=O)(=O)NC(=O)[C@@]23C[C@H]2CCCCCCC[C@H](NC(=O)OC(C)(C)C)C(=O)N2C[C@H](OC(=O)N4Cc5cccc(F)c5C4)C[C@H]2C(=O)N3)cc(OC)c1 [Compound 632] | < 100 nM | 100 to 1000 nM
4 | Cc1ccc(ONC(=O)[C@@]23C[C@H]2CCCCCCC[C@H](NC(=O)OC(C)(C)C)C(=O)N2C[C@H](OC(=O)N4Cc5cccc(F)c5C4)C[C@H]2C(=O)N3)cc1C [Compound 802] | < 100 nM | 1000 to 10000 nM
5 | CS(=O)(=O)c1ccc(-c2csc(N[C@H]3CCCCC/C=C\[C@@H]4C[C@@]4(C(=O)NS(=O)(=O)C4CC4)NC(=O)[C@@H]4C[C@@H](OC(=O)N5Cc6cccc(F)c6C5)CN4C3=O)n2)cc1 [Compound 213] | < 100 nM | < 100 nM
6 | CC(C)(C)OC(=O)N[C@H]1CCCCC/C=C\[C@@H]2C[C@@]2(C(=O)NS(=O)(=O)Cc2ccccc2Cl)NC(=O)[C@@H]2C[C@@H](OC(=O)N3Cc4cccc(F)c4C3)CN2C1=O [Compound 510] | < 100 nM | < 100 nM
7 | CN(Cc1ccccc1)C(=O)N[C@H]1CCCCC/C=C\[C@@H]2C[C@@]2(C(=O)NS(=O)(=O)C2CC2)NC(=O)[C@@H]2C[C@@H](OC(=O)N3Cc4cccc(F)c4C3)CN2C1=O [Compound 421] | < 100 nM | < 100 nM
8 | CC(C)CS(=O)(=O)NC(=O)[C@@]12C[C@H]1/C=C\CCCCC[C@H](NC(=O)OC(C)(C)C)C(=O)N1C[C@H](OC(=O)N3Cc4cccc(F)c4C3)C[C@H]1C(=O)N2 [Compound 551] | < 100 nM | < 100 nM
9 | O=C(N[C@H]1CCCCC/C=C\[C@@H]2C[C@@]2(C(=O)NS(=O)(=O)C2CC2)NC(=O)[C@@H]2C[C@@H](OC(=O)N3Cc4cccc(F)c4C3)CN2C1=O)OC(C1CC1)C1CC1 [Compound 428] | < 100 nM | 100 to 1000 nM
10 | CC(C)ONC(=O)[C@@]12C[C@H]1CCCCCCC[C@H](NC(=O)OC(C)(C)C)C(=O)N1C[C@H](OC(=O)N3Cc4cccc(F)c4C3)C[C@H]1C(=O)N2 [Compound 812] | < 100 nM | < 100 nM
11 | Cc1ccc(S(=O)(=O)NC(=O)[C@@]23C[C@H]2/C=C\CCCCC[C@H](NC(=O)OC(C)(C)C)C(=O)N2C[C@H](OC(=O)N4Cc5cccc(F)c5C4)C[C@H]2C(=O)N3)cc1F [Compound 301, (2R,6S,13aS,14aR,16aS,Z)-6-(tert-butoxycarbonylamino)-14a-(3-fluoro-4-methylphenylsulfonylcarbamoyl)-5,16-dioxo-1,2,3,5,6,7,8,9,10,11,13a,14,14a,15,16,16a-hexadecahydrocyclopropa[e]pyrrolo[1,2-a][1,4]diazacyclopentadecin-2-yl 4-fluoroisoindoline-2-carboxylate] | < 100 nM | < 100 nM
12 | CC(C)(C)OC(=O)N[C@H]1CCCCC/C=C\[C@@H]2C[C@@]2(C(=O)NS(=O)(=O)Cc2ccc(Cl)cc2Cl)NC(=O)[C@@H]2C[C@@H](OC(=O)N3Cc4cccc(F)c4C3)CN2C1=O [Compound 524] | < 100 nM | 100 to 1000 nM
13 | CC(C)(C)OC(=O)N[C@H]1CCCCCCC[C@@H]2C[C@@]2(C(=O)NOc2ccc(Cl)cc2)NC(=O)[C@@H]2C[C@@H](OC(=O)N3Cc4cccc(F)c4C3)CN2C1=O [Compound 809] | < 100 nM | 1000 to 10000 nM
14 | Cc1ccc(S(=O)(=O)NC(=O)[C@@]23C[C@H]2/C=C\CCCCC[C@H](NC(=O)OC(C)(C)C)C(=O)N2C[C@H](OC(=O)N4Cc5cccc(F)c5C4)C[C@H]2C(=O)N3)c(C)c1 [Compound 355] | < 100 nM | < 100 nM
15 | CCC(C)(C)OC(=O)N[C@H]1CCCCC/C=C\[C@@H]2C[C@@]2(C(=O)NS(=O)(=O)c2ccccc2C)NC(=O)[C@@H]2C[C@@H](OC(=O)N3Cc4cccc(F)c4C3)CN2C1=O [Compound 337] | < 100 nM | < 100 nM
16 | CC(C)(C)OC(=O)N[C@H]1CCCCCCC[C@@H]2C[C@@]2(C(=O)NOc2ccc(F)cc2)NC(=O)[C@@H]2C[C@@H](OC(=O)N3Cc4cccc(F)c4C3)CN2C1=O [Compound 811] | < 100 nM | 1000 to 10000 nM
17 | CC(C)(C)OC(=O)N[C@H]1CCCCC/C=C\[C@@H]2C[C@@]2(C(=O)NOc2ccccc2)NC(=O)[C@@H]2C[C@@H](OC(=O)N3Cc4cccc(F)c4C3)CN2C1=O [Compound 711] | < 100 nM | 1000 to 10000 nM

Row | SMILES | IC50 (NS3-NS4 [1]) | EC50 (NS3-NS4 [2])
18 | O=C(N[C@H]1CCCCC/C=C\[C@@H]2C[C@@]2(C(=O)NS(=O)(=O)C2CC2)NC(=O)[C@@H]2C[C@@H](OC(=O)N3Cc4cccc(Cl)c4C3)CN2C1=O)OC1CCOCC1 [Compound 411] | < 100 nM | < 100 nM
19 | CC(C)(C)OC(=O)N[C@H]1CCCCCCC[C@@H]2C[C@@]2(C(=O)NS(=O)(=O)c2cc(Cl)sc2Cl)NC(=O)[C@@H]2C[C@@H](OC(=O)N3Cc4cccc(F)c4C3)CN2C1=O [Compound 606] | < 100 nM | < 100 nM
20 | CC(C)(C)OC(=O)N[C@H]1CCCCC/C=C\[C@@H]2C[C@@]2(C(=O)NS(=O)(=O)Cc2ccccc2F)NC(=O)[C@@H]2C[C@@H](OC(=O)N3Cc4cccc(F)c4C3)CN2C1=O [Compound 507] | < 100 nM | < 100 nM
21 | CC(C)(C)OC(=O)N[C@H]1CCCCCCC[C@@H]2C[C@@]2(C(=O)NS(=O)(=O)c2ccccc2C(F)(F)F)NC(=O)[C@@H]2C[C@@H](OC(=O)N3Cc4cccc(F)c4C3)CN2C1=O [Compound 605] | < 100 nM | < 100 nM
22 | Cc1cc(C)cc(ONC(=O)[C@@]23C[C@H]2CCCCCCC[C@H](NC(=O)OC(C)(C)C)C(=O)N2C[C@H](OC(=O)N4Cc5cccc(F)c5C4)C[C@H]2C(=O)N3)c1 [Compound 807] | < 100 nM | 1000 to 10000 nM
23 | CC(C)(C)OC(=O)N[C@H]1CCCCC/C=C\[C@@H]2C[C@@]2(C(=O)NS(=O)(=O)c2c(F)cccc2F)NC(=O)[C@@H]2C[C@@H](OC(=O)N3CCc4ccccc4C3)CN2C1=O [Compound 363] | < 100 nM | 1000 to 10000 nM
24 | O=C1N[C@]2(C(=O)NS(=O)(=O)C3CC3)C[C@H]2/C=C\CCCCC[C@H](Nc2nc(-c3ccc(F)cn3)cs2)C(=O)N2C[C@H](OC(=O)N3CCc4ccccc4C3)C[C@@H]12 [Compound 229] | < 100 nM | < 100 nM
25 | CC(C)(C)OC(=O)N[C@H]1CCCCC/C=C\[C@@H]2C[C@@]2(C(=O)NOc2cccc(C(F)(F)F)c2)NC(=O)[C@@H]2C[C@@H](OC(=O)N3Cc4cccc(F)c4C3)CN2C1=O [Compound 709] | < 100 nM | 1000 to 10000 nM
26 | O=C1N[C@]2(C(=O)NS(=O)(=O)C3CC3)C[C@H]2/C=C\CCCCC[C@H](Nc2nc(-c3ccccc3Cl)cs2)C(=O)N2C[C@H](OC(=O)N3Cc4cccc(F)c4C3)C[C@@H]12 [Compound 209] | < 100 nM | < 100 nM
27 | CN(C(=O)N[C@H]1CCCCC/C=C\[C@@H]2C[C@@]2(C(=O)NS(=O)(=O)c2ccccc2Cl)NC(=O)[C@@H]2C[C@@H](OC(=O)N3Cc4cccc(F)c4C3)CN2C1=O)C(C)(C)C [Compound 359] | < 100 nM | < 100 nM
28 | O=C1N[C@]2(C(=O)NS(=O)(=O)C3CC3)C[C@H]2/C=C\CCCCC[C@H](Nc2nc(-c3cccc(F)c3)cs2)C(=O)N2C[C@H](OC(=O)N3Cc4cccc(F)c4C3)C[C@@H]12 [Compound 215] | < 100 nM | < 100 nM
29 | CN(C(=O)N[C@H]1CCCCC/C=C\[C@@H]2C[C@@]2(C(=O)NS(=O)(=O)C2(C)CC2)NC(=O)[C@@H]2C[C@@H](OC(=O)N3Cc4cccc(Cl)c4C3)CN2C1=O)C(C)(C)C [Compound 441] | < 100 nM | < 100 nM
30 | CC(C)(C)O[C@@H]1C[C@H]2C(=O)N[C@]3(C(=O)NS(=O)(=O)C4CC4)C[C@H]3/C=C\CCCCC[C@H](Nc3ncc(-c4ccccc4)s3)C(=O)N2C1 [Compound 202, (2R,6S,13aS,14aR,16aS,Z)-2-tert-butoxy-N-(cyclopropylsulfonyl)-5,16-dioxo-6-(5-phenylthiazol-2-ylamino)-1,2,3,5,6,7,8,9,10,11,13a,14,14a,15,16,16a-hexadecahydrocyclopropa[e]pyrrolo[1,2-a][1,4]diazacyclopentadecine-14a-carboxamide] | < 100 nM | 100 to 1000 nM
31 | O=C1N[C@]2(C(=O)NS(=O)(=O)C3CC3)C[C@H]2/C=C\CCCCC[C@H](Nc2nc(-c3ccc(OC(F)(F)F)cc3)cs2)C(=O)N2C[C@H](OC(=O)N3Cc4cccc(F)c4C3)C[C@@H]12 [Compound 222] | < 100 nM | < 100 nM
32 | O=C(N[C@H]1CCCCC/C=C\[C@@H]2C[C@@]2(C(=O)NS(=O)(=O)C2CC2)NC(=O)[C@@H]2C[C@@H](OC(=O)N3Cc4cccc(Cl)c4C3)CN2C1=O)O[C@@H]1CCOC1 [Compound 402, (2R,6S,13aS,14aR,16aS,Z)-14a-(cyclopropylsulfonylcarbamoyl)5,16-dioxo-6-(((R)-tetrahydrofuran-3-yloxy)carbonylamino)-1,2,3,5,6,7,8,9,10,11,13a,14,14a,15,16,16a-hexadecahydrocyclopropa[e]pyrrolo[1,2-a][1,4]diazacyclopentadecin-2-yl 4-chloroisoindoline-2-carboxylate] | < 100 nM | < 100 nM
33 | O=C1N[C@]2(C(=O)NS(=O)(=O)C3CC3)C[C@H]2/C=C\CCCCC[C@H](Nc2ccc(F)cc2)C(=O)N2C[C@H](OC(=O)N3Cc4cccc(F)c4C3)C[C@@H]12 [Compound 447, (2R,6S,13aS,14aR,16aS,Z)-14a-(cyclopropylsulfonylcarbamoyl)-6-(4-fluorophenylamino)-5,16-dioxo-1,2,3,5,6,7,8,9,10,11,13a,14,14a,15,16,16a-hexadecahydrocyclopropa[e]pyrrolo[1,2-a][1,4]diazacyclopentadecin-2-yl 4-fluoroisoindoline-2-carboxylate] | < 100 nM | < 100 nM
